Measured values: publication PMC11521937, “Expression and characterization of pantothenate energy‐coupling factor transporters as an anti‐infective drug target” (Protein Science : A Publication of the Protein Society, 2024)
In brackets after ≈: the same amount, converted by molar mass. Read-outs that look alike come from different tables or passages of the source.

Experiments:
S. pneumoniae ECF‐PanT = assay: Transport‐activity assay, radiolabeled pantothenate uptake into proteoliposomes; format: biochemical, Streptococcus pneumoniae; conditions: 250 μM compound + 5 mM of Mg-ATP, relative to 5 mM Mg‐ATP alone
Experimental: Based on the reported transport activity assay on L. delbrueckii (Swier et al., [2016]), for the first time, we adapted this assay to a pathogenic bacterium. To do so, we purified the ECF‐PanT transporter, reconstituted it into proteoliposomes, and carried out transport assays with radiolabeled pantothenate. Upon the addition of MgATP, the radiolabeled pantothenate is translocated across the membrane via an ATP‐dependent mechanism. MgATP at 5 mM served as a positive control, supplying the proteins with the energy needed to complete the transport cycle, while MgADP at 5 mM was used as a negative control. The uptake of the radiolabeled substrate into proteoliposomes was measured using a scintillation counter.
The assay was performed based on the published protocol (Swier et al., [2016]). The only modification was reconstitution of S. pneumoniae ECF‐PanT in a 1:125 (w/w) ratio of protein to E. coli polar lipids into large unilamellar vesicles and using radiolabeled pantothenate for uptake.

ECF‐PanT = ECF‐PanT (Streptococcus pneumoniae, UniProt A0A0H2ZPG6+A0ACD7PRR9+Q04HV7+Q97N51); assay: SPR binding to immobilized ECF‐PanT; conditions: for Kd: SPR, S. pneumoniae ECF‐PanT, n = 2; for kon: pH 7.5, read-out: k a; for koff: pH 7.5, read-out: k d
Experimental: (§1) The ECF‐PanT, ECF‐module, and ECF‐FolT2, each bearing a histidine tag, were immobilized on a high‐affinity poly‐nitrilotriacetic acid (poly‐NTA) sensor chip, which was initially activated using NiCl2.
(§2) Additionally, the protein was maintained in the buffer containing 5% (v/v) DMSO. For a more in‐depth description of the procedures, please refer to Appendix S1.
(§3) Surface plasmon resonance (SPR)
(§4) The SPR binding studies were performed using a Reichert 4SPR surface plasmon resonance spectrometer (Reichert Technologies, Buffalo, NY, USA), and medium–density NTA derivatized polycarboxylate hydrogel NiHC200M sensor chips (XanTec Bioanalytics, Düsseldorf, Germany). The experimental procedure involved two rounds of nickel activation and one immobilization step at a […]
(§5) standard protocol as provided by Xantec bioanalytics with a slight modification based on the recombinant proteins. The flow-cell 4 was left blank to serve as a reference.
(§6) The immobilization buffer employed for the immobilization process consisted of 10 mM HEPES with a pH of 7.5, 50 mM NaCl, 50 µM EDTA, and 0.05% DDM without DMSO. Following the immobilization step, for the binding study of the compounds, the running buffer was exchanged for the mentioned buffer with 5% v/v DMSO. This was done to ensure consistency in the percentage of DMSO present in the solutions containing the respective testing inhibitors, as these inhibitors were soluble in the DMSO solvent. By maintaining the same DMSO concentration, we aimed to minimize any potential solvent-related effects on the assay results. All running buffers were filtered and degassed before use.
(§7) The system was initially primed with 5 mM NiCl2 with an association and dissociation time of 2 min for each to activate the NTA sensor chip. Then, the recombinant proteins with a concentration of 200 nM were injected at a flow rate of 10 µL/min for 8 min. Finally, the baseline check with the running […]
(§8) First, the calibration curve for correction of the DMSO effect was prepared; the concentrations were […]
(§9) concentration of DMSO in all the samples was set to 5% v/v DMSO. The samples (200 µL) were loaded on a 96-well plate and were injected at a flow rate of 50 μL/min. Single-cycle kinetics were applied for KD determination. The association time was set to 60 s, and the dissociation phase was recorded for 120 s. For surface regeneration, 0.35 M EDTA (pH 8.5) and 0.1 M NaOH were used. Data processing and […]
(§10) were calculated by sequential subtractions of the corresponding curves obtained from the reference flow cell and the running buffer (blank). SPR responses were expressed in the resonance unit (RU). The KD values were calculated by global fitting of the kinetic curves as well as fitting of the steady state binding responses to a 1:1 Langmuir interaction model.
(§11) The SPR experiments were conducted at least two times, representing independent replicates. The […]
(§12) interactions, are presented in Figure S12 for ECF-PanT, Figure S13 for ECF-FolT2, and Figure S14 for […]

[1] = system: Streptococcus pneumoniae DSM‐20566; assay: bacterial growth assay (MIC), S. pneumoniae DSM‐20566; format: cell-based
[2] = In vitro MTT cytotoxicity assay, HepG2; format: cell-based, human; conditions: human, read-out: Percent (%) cell viability at 100 μM, HepG2 cells
Experimental: In vitro cytotoxicity evaluation […]
with minor modifications, which will be detailed below.
To obtain information regarding the toxicity of our compounds, their impact on the viability of human cells was investigated. HepG2 and A549 cells (2 × 10^4 cells per well) were seeded in 96-well, flat-bottomed culture plates in 100 µL culture medium (DMEM containing 10% fetal calve serum, 1% penicillin-streptomycin). Twenty-four hours after seeding the cells, medium was removed and replaced by medium containing test compounds in a final DMSO concentration of 1%. Compounds were tested in duplicates at a single concentration in 1% DMSO/medium. Epirubicin and doxorubicin were used as positive controls in serial dilutions starting from 10 µM, and rifampicin was used as a negative control (at 100 µM). The living cell mass was determined 48 h after treatment with compounds by adding 0.1 volumes of 3-(4,5-dimethylthiazol-2-yl)-2,5-diphenyltetrazolium bromide (MTT) solution (5 mg/mL sterile PBS) (Sigma, St. Louis, MO) to the wells. After incubating the cells for 30 min at 37 °C (atmosphere containing 5% CO2), medium was removed and MTT crystals were dissolved in 75 µL of a solution containing 10% SDS and 0.5% acetic acid in DMSO. The optical density (OD) of the samples was determined photometrically at 570 nm in a PHERAstar Omega plate reader (BMG labtech, Ortenberg, Germany). To obtain percent viability for each sample, their ODs were related to those of DMSO controls. At least two independent measurements were performed for each compound. The calculation of IC50 was performed using the nonlinear regression function of GraphPad Prism 10 (GraphPad Software, San Diego, CA, USA). […]

ECF‐FolT2 = ECF‐FolT2 (Lactobacillus delbrueckii subsp. bulgaricus, UniProt Q1G929+Q1GBI8+Q1GBI9+Q1GBJ0); assay: SPR binding to immobilized ECF‐FolT2; conditions: for Kd: n = 2
Experimental: as §1, §2, §3, §4, §5, §6, §7, §8, §9, §10, §11, §12

[3] = Equilibrium, K D, steady state fit
[4] = Kinetic, K D, global fit of kinetic curves
[5] = Equilibrium, K D, SPR, L. delbrueckii ECF‐FolT2, steady state fit
[6] = Kinetic, K D, SPR, L. delbrueckii ECF‐FolT2, global fit of kinetic curves
[7] = global fit of kinetic curves, read-out: Kinetic, K D
[8] = steady state fit, read-out: Equilibrium, K D
[9] = SPR, L. delbrueckii ECF‐FolT2, global fit of kinetic curves, read-out: Kinetic, K D
[10] = SPR, L. delbrueckii ECF‐FolT2, steady state fit, read-out: Equilibrium, K D
[11] = pH 7.5, SPR, L. delbrueckii ECF‐FolT2, n = 2, read-out: k a
[12] = pH 7.5, SPR, L. delbrueckii ECF‐FolT2, n = 2, read-out: k d

Chain of ECF‐FolT2 (Q1GBJ0 whole entry): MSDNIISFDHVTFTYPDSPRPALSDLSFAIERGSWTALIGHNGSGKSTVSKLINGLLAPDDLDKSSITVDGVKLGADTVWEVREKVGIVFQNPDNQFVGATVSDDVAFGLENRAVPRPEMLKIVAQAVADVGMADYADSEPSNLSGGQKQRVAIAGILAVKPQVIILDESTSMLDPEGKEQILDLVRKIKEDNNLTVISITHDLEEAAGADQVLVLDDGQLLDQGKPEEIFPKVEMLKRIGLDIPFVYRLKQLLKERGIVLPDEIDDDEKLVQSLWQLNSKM
Chain of ECF‐FolT2 (Q1GBI9 whole entry): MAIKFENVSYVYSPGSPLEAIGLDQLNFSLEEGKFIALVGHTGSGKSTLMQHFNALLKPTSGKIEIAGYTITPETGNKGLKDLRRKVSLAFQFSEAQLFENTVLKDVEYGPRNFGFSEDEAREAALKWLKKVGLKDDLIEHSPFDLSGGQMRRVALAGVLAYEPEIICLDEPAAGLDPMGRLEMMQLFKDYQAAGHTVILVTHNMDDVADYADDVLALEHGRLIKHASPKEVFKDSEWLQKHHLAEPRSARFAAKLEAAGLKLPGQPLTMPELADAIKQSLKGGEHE
Chain of ECF‐FolT2 (Q1GBI8 entry or part of it): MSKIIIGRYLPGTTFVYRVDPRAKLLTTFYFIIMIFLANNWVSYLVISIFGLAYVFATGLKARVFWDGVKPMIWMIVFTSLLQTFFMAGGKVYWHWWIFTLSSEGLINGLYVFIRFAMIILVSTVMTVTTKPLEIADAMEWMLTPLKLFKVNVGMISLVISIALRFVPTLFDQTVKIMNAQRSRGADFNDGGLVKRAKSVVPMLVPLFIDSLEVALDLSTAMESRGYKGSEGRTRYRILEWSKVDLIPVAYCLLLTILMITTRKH
Chain of ECF‐FolT2 (Q1G929 entry or part of it): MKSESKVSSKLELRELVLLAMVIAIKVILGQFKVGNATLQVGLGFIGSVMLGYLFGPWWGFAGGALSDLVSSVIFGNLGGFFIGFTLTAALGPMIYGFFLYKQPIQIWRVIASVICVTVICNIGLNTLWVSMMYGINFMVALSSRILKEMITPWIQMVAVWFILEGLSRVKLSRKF

Compound | Percentage inhibition of pantothenate uptake (S. pneumoniae ECF‐PanT) | Kd (ECF‐PanT; [3]) | Kd (ECF‐PanT; [4]) | kon (ECF‐PanT) | koff (ECF‐PanT) | MIC [1] | viability at 48 h, 100 µM [2] | Kd (ECF‐FolT2; [5]) | Kd (ECF‐FolT2; [6]) | kon (ECF‐FolT2; pH 7.5, read-out: k a) | koff (ECF‐FolT2; pH 7.5, read-out: k d) | Kd (ECF‐PanT; [7]) | Kd (ECF‐PanT; [8]) | viability at 48 h, 100 µM ([2]; HepG2 cells) | Kd (ECF‐FolT2; [9]) | Kd (ECF‐FolT2; [10]) | kon (ECF‐FolT2; [11]) | koff (ECF‐FolT2; [12])
CC(C)(C)OC(=O)Nc1ccc(OCc2cccc3ccccc23)cc1C(=O)O [Compound 3] | 80.7% | 96 ± 8 µM | 99 ± 1 µM | 650 ± 9 M⁻¹ s⁻¹ | 0.0643 ± 0.0006 s⁻¹ | 16 µM (≈ 6.3 µg/mL) | 49 ± 3% | 128 ± 9 µM | 132 ± 3 µM | 570 ± 10 M⁻¹ s⁻¹ | 0.0755 ± 0.0008 s⁻¹ | – | – | – | – | – | – | –
O=C(O)c1cccc(NCc2ccc(-c3ccccc3Cl)o2)c1 [Compound 6] | 61.9% | – | – | 376 ± 6 M⁻¹ s⁻¹ | 0.147 ± 0.002 s⁻¹ | 128 µM (≈ 42 µg/mL) | – | – | – | – | – | 391 ± 6 µM | 374 ± 6 µM | 105 ± 3% | 231 ± 5 µM | 230 ± 10 µM | 100000 M⁻¹ s⁻¹ | 22 ± 3 s⁻¹
O=C(O)c1cccc(NCc2ccc(-c3cccc(Cl)c3)o2)c1 [Compound 5] | 90.6% | – | – | 348 ± 7 M⁻¹ s⁻¹ | 0.157 ± 0.002 s⁻¹ | 128 µM (≈ 42 µg/mL) | – | – | – | – | – | 451 ± 8 µM | 420 ± 10 µM | 106 ± 8% | 328 ± 6 µM | 300 ± 30 µM | 570 ± 10 M⁻¹ s⁻¹ | 0.187 ± 0.003 s⁻¹
O=C(O)c1cc(OCc2ccc(Br)c3ccccc23)ccc1O [Compound 2] | 117.2% | 170 ± 5 µM | 172 ± 2 µM | – | – | 8 µM (≈ 2.99 µg/mL) | 23 ± 7% | 190 ± 20 µM | 185 ± 3 µM | – | – | – | – | – | – | – | – | –
O=C(O)c1cc(OCc2cccc3ccccc23)ccc1O [Compound 1] | 81.8% | 277 ± 5 µM | 276 ± 4 µM | – | – | 128 µM (≈ 37.7 µg/mL) | 20 ± 2% | 300 ± 20 µM | 294 ± 6 µM | – | – | – | – | – | – | – | – | –
O=C(O)c1cccc(NCc2ccc(-c3ccc(Cl)cc3)o2)c1 [Compound 4] | 95.2% | – | – | 399 ± 4 M⁻¹ s⁻¹ | 0.127 ± 0.001 s⁻¹ | 64 µM (≈ 21 µg/mL) | – | – | – | – | – | 317 ± 3 µM | 304 ± 6 µM | 88 ± 9% | 353 ± 5 µM | 340 ± 10 µM | 325 ± 5 M⁻¹ s⁻¹ | 0.115 ± 0.001 s⁻¹
